Assays:
Assay type in all cases: biochemical
FXIIa = target: T1, FXIIa (Homo sapiens, UniProt P00748); assay: Determination of Factor XIIa inhibition (chromogenic substrate S-2302); conditions: human FXIIa alpha, Ki category
T1 construct: FXIIa alpha
T1 sequence (P00748 373-615 limits assumed): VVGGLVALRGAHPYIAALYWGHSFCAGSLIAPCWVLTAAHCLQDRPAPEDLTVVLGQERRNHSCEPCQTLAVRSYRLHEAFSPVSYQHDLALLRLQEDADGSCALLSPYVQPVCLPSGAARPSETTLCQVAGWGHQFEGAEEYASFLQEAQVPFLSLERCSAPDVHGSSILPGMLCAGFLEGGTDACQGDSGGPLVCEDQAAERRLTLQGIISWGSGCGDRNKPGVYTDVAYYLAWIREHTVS
T1 sequence (P00748 20-372 partner limits assumed): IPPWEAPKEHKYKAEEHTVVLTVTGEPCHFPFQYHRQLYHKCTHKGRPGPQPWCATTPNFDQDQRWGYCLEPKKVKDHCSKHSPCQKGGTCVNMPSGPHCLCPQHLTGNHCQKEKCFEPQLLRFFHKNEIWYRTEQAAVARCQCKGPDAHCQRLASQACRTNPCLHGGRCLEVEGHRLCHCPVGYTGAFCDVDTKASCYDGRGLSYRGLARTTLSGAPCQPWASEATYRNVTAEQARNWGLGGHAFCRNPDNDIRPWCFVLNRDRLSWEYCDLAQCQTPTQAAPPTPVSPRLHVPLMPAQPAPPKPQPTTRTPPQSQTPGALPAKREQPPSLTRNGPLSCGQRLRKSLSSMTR
Protocol: (§1) The activities of the compounds of the invention have been determined in vitro using the following assays protocols for the screening of activity of FXIIa and other proteases. Each of these assays were performed in a purified system employing the use of chromogenic assays in microplate plate wells. Chromogenic peptide substrates mimicking natural protein substrates are attached via an amide bond to a chromogenic group. Paranitroaniline (pNA) is released from the peptide following catalyses by the proteolytic enzyme; the absorbance increases and can be monitored at 405 nm.
(§2) All compounds were dissolved in 100% (v/v) DMSO to a stock concentration of 10 mM, the highest concentration of compound used in each assay is 500 μM. The final concentrations of DMSO were 5% (v/v) in 50 mM Tris 137 mM NaCl pH 7.4. Where no test compound was added a final concentration of 5% DMSO was employed.
Factor XIIa activity was measured using a chromogenic substrate S-2302 (Chromogenix). Various concentrations of compound were incubated with 10 nM of FXIIa and incubated at 37° C. for 10 minutes in 50 mM Tris, 137 mM NaCl, pH 7.4, prior to the addition of the chromogenic substrate S-2302 at a concentration equal the to the experimentally derived KM. Kinetic readings at 405 nm were monitored every 12 secs for a total duration of 3 hours at 37° C. Gradients of initial rates were determined and employed to calculate IC50 values.
The activity of the compounds of the invention has been categorised based on the Ki values, the categories being “†”, “*”, “**” and “***”. […] The category “**” refers to compounds with a Ki value of 0.2 μM to 0.8 μM.
(§3) Ki═IC50/(1+[Substrate]/Km)
(§4) Where [Substrate] denotes the concentration of substrate used in the assay and Km is the determined value of each enzyme with its own substrate.

FXa = FXa (Homo sapiens, UniProt P00742); assay: Determination of selectivity: FXa inhibition (chromogenic substrate S2765); conditions: fold selectivity for FXIIa over FXa (human); category
Sequence of FXa (P00742 235-488 limits assumed): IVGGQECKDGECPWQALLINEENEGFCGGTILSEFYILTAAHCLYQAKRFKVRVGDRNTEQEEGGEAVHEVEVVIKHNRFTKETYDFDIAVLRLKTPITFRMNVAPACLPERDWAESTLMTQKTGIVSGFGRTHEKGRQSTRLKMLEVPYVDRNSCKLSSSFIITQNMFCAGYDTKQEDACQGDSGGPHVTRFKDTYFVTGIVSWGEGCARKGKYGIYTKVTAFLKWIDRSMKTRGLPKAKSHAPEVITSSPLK
Sequence of FXa (P00742 41-179 partner limits assumed): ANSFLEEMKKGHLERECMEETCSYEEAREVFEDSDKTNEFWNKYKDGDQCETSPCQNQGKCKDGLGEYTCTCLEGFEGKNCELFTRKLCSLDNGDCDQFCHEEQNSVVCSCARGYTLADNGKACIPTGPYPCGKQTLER
Protocol: as §1, §2
(§5) To determine selectivity of test compounds, these test compounds were assayed for inhibitory activity against other serine proteases including FXa and thrombin. Essentially compounds at increasing concentrations were incubated with each enzyme: FXa (5 nM) and thrombin (5 nM), for 10 mins at 37° C. followed by the appropriate chromogenic substrate, S2765 (Chromogenix) and GPR (Bachem) respectively in 50 mM Tris, 137 mM NaCl, pH 7.4. Substrates were used at a concentration equal to the appropriate experimentally derived KM. Kinetic readings at 405 nm were monitored every 12 secs for a total duration of 3 hours at 37° C. Gradients of initial rates were determined and employed to calculate IC50 values. Values of IC50 were converted to Ki values based on the formula:
as §3, §4
The fold selectivity for FXIIa over FXa for the compounds of the invention has been categorised based on the fold selectivity values, the categories being “o”, “oo” and “ooo”. The category “o” refers to fold selectivity values less than 10 (e.g. a fold selectivity value of less than 10 and greater than 1). The category “oo” refers to a fold selectivity value of 10 to 100. The category “ooo” refers to fold selectivity values greater than 100.

thrombin = target: T2, thrombin (Homo sapiens, UniProt P00734); assay: Determination of selectivity: thrombin inhibition (chromogenic substrate GPR); conditions: fold selectivity for FXIIa over thrombin (human); category
T2 construct: FXa (5 nM) and thrombin (5 nM)
Protocol: as §1, §2, §5, §3, §4
The fold selectivity for FXIIa over thrombin for the compounds of the invention has been categorised based on the fold selectivity values, the categories being “+”, “++” and “+++”. The category “+” refers to fold selectivity values less than 10 (e.g. a fold selectivity value of less than 10 and greater than 1). The category “++” refers to a fold selectivity value of 10 to 100. The category “+++” refers to fold selectivity values greater than 100.

**Q.** For `Cc1ccc(C[C@@H]2C[C@@H](C(=O)NCc3ccc4c(cnn4C)c3)N(C(=O)[C@@H]3NCCC[C@@H]3C(=O)N(C)CCN(C)C3CC3)C2)cc1` [Example M06049, (2R,3S)-N-[2-[cyclopropyl(methyl)amino]ethyl]N-methyl-2-[(2S,4R)-2-[(1-methylindazol-5-yl)methylcarbamoyl]-4-(p-tolylmethyl)pyrrolidine-1-carbonyl]piperidine-3-carboxamide], which Ki (FXIIa) is on record?
**A.** < 200 nM

**Q.** What about the “FXa (human)/FXIIa alpha (human)” value (FXa) of the same compound?
**A.** ∘∘∘

**Q.** What about the “Thrombin (human)/FXIIa alpha (human)” value (thrombin) of the same compound?
**A.** +++ (fold selectivity values greater than 100)

**Q.** What does the source list for `Cc1ccc2c(c1)CCN2C1C[C@@H](C(=O)NCc2ccc3c(cnn3C)c2)N(C(=O)[C@@H]2NCCC[C@@H]2C(=O)N2CCCC2)C1` (single isomer, unassigned) [Example M05839]?
**A.** Ki (FXIIa): 200 to 800 nM; FXa (human)/FXIIa alpha (human) (FXa): ∘∘∘; Thrombin (human)/FXIIa alpha (human) (thrombin): +++ (fold selectivity values greater than 100)

**Q.** What does the source list for `Cc1ccc(C[C@@H]2C[C@@H](C(=O)NCc3ccc4c(cnn4C)c3)N(C(=O)[C@@H]3NCCC[C@@H]3C(=O)N3C4CCC3COC4)C2)cc1` [Example M05770, (2S,4R)-1-((2R,3S)-3-(3-oxa-8-azabicyclo[3.2.1]octane-8-carbonyl)piperidine-2-carbonyl)-N-((1-methyl-1H-indazol-5-yl)methyl)-4-(4-methylbenzyl)pyrrolidine-2-carboxamide]?
**A.** Ki (FXIIa): 200 to 800 nM; FXa (human)/FXIIa alpha (human) (FXa): ∘∘∘; Thrombin (human)/FXIIa alpha (human) (thrombin): +++ (fold selectivity values greater than 100)

**Q.** For `Cc1ccc(C[C@@H]2C[C@@H](C(=O)NCc3ccc4c(cnn4C(F)F)c3)N(C(=O)[C@@H]3NCCC[C@@H]3C(=O)N3CCCC3)C2)cc1` [Example M05778, (2S,4R)-N-((1-(difluoromethyl)-1H-indazol-5-yl)methyl)-4-(4-methylbenzyl)-1-((2R,3S)-3-(pyrrolidine-1-carbonyl)piperidine-2-carbonyl)pyrrolidine-2-carboxamide], which Ki (FXIIa) is on record?
**A.** 200 to 800 nM

**Q.** And the “FXa (human)/FXIIa alpha (human)” value (FXa)?
**A.** ∘∘∘

**Q.** What about the “Thrombin (human)/FXIIa alpha (human)” value (thrombin) of the same compound?
**A.** +++ (fold selectivity values greater than 100)

**Q.** What does the source list for `Cc1ccc(C[C@@H]2C[C@@H](C(=O)NCC3CCn4c(C)nnc4C3)N(C(=O)[C@@H]3NCCC[C@@H]3C(=O)N3CCCC3)C2)cc1` (stereo partly drawn) [Example M05913, (2S,4R)-N-[(3-mthyl-5,6,7,8-tetrahydro-[1,2,4]triazolo[4,3-a]pyidin-7-yl)methyl]-4-(p-tolylmethyl)-1-[(2R,3S)-3-(pyrrolidine-1-carbonyl)piperidine-2-carbonyl]pyrrolidine-2-carboxamide]?
**A.** Ki (FXIIa): 200 to 800 nM; FXa (human)/FXIIa alpha (human) (FXa): ∘∘∘; Thrombin (human)/FXIIa alpha (human) (thrombin): +++ (fold selectivity values greater than 100)

**Q.** With `Cc1ccc(C=C2C[C@@H](C(=O)NCc3ccc4c(cnn4C)c3)N(C(=O)[C@@H]3NCCC[C@@H]3C(=O)N3CCCC3)C2)cc1` (single isomer, unassigned) [Example M05844] as the compound, how does the Ki (FXIIa) read?
**A.** 800 to 5000 nM

**Q.** And the “FXa (human)/FXIIa alpha (human)” value (FXa)?
**A.** ∘∘

**Q.** And the “Thrombin (human)/FXIIa alpha (human)” value (thrombin)?
**A.** ++ (a fold selectivity value of 10 to 100)

**Q.** `Cc1ccc(C[C@@H]2C[C@@H](C(=O)NCc3ccc4c(cnn4C)c3)N(C(=O)[C@@H]3NCCC[C@@H]3C(=O)N3CC[C@H](N(C)C)C3)C2)cc1` [Example M06013, (2S,4R)-1-((2R,3S)-3-((S)-3-(dimethylamino)pyrrolidine-1-carbonyl)piperidine-2-carbonyl)-N-((1-methyl-1H-indazol-5-yl)methyl)-4-(4-methylbenzyl)pyrrolidine-2-carboxamide] was tested. Which Ki (FXIIa) did it give?
**A.** < 200 nM

**Q.** What about the “FXa (human)/FXIIa alpha (human)” value (FXa) of the same compound?
**A.** ∘∘∘

**Q.** What about the “Thrombin (human)/FXIIa alpha (human)” value (thrombin) of the same compound?
**A.** +++ (fold selectivity values greater than 100)

**Q.** What does the source list for `Cn1ncc2cc(CNC(=O)[C@@H]3C[C@@H](Cc4ncc(C5CC5)o4)CN3C(=O)[C@@H]3NCCC[C@@H]3C(=O)N3CCCC3)ccc21` [Example M06009]?
**A.** Ki (FXIIa): 200 to 800 nM; FXa (human)/FXIIa alpha (human) (FXa): ∘∘∘; Thrombin (human)/FXIIa alpha (human) (thrombin): +++ (fold selectivity values greater than 100)

**Q.** Which results are given for `Cn1ncc2cc(CNC(=O)[C@@H]3C[C@@H](Cc4cccc(C(F)(F)F)c4)CN3C(=O)[C@@H]3NCCC[C@@H]3C(=O)N3CCCC3)ccc21` [Example M05836, (2S,4R)-N-((1-methyl-1H-indazol-5-yl)methyl)-1-((2R,3S)-3-(pyrrolidine-1-carbonyl)piperidine-2-carbonyl)-4-(3-(trifluoromethyl)benzyl)pyrrolidine-2-carboxamide]?
**A.** Ki (FXIIa): 800 to 5000 nM; FXa (human)/FXIIa alpha (human) (FXa): ∘∘∘; Thrombin (human)/FXIIa alpha (human) (thrombin): +++ (fold selectivity values greater than 100)

**Q.** Which results are given for `Cc1ccc(C[C@@H]2C[C@@H](C(=O)NCc3ccc4c(cnn4C)c3)N(C(=O)[C@@H]3NCCC[C@@H]3C(=O)N3CC[C@H](F)C3)C2)cc1` [Example M05777, (2S,4R)-1-((2R,3S)-3-((S)-3-fluoropyrrolidine-1-carbonyl)piperidine-2-carbonyl)-N-((1-methyl-1H-indazol-5-yl)methyl)-4-(4-methylbenzyl)pyrrolidine-2-carboxamide]?
**A.** Ki (FXIIa): 200 to 800 nM; FXa (human)/FXIIa alpha (human) (FXa): ∘∘∘; Thrombin (human)/FXIIa alpha (human) (thrombin): +++ (fold selectivity values greater than 100)

**Q.** `Cc1ccc(C[C@@H]2C[C@@H](C(=O)NCC3CCn4c(nnc4C(F)(F)F)C3)N(C(=O)[C@@H]3NCCC[C@@H]3C(=O)N3CCCC3)C2)cc1` (stereo partly drawn) [Example M05851] was tested. Which Ki (FXIIa) did it give?
**A.** 800 to 5000 nM

**Q.** What about the “FXa (human)/FXIIa alpha (human)” value (FXa) of the same compound?
**A.** ∘∘∘

**Q.** What about the “Thrombin (human)/FXIIa alpha (human)” value (thrombin) of the same compound?
**A.** +++ (fold selectivity values greater than 100)

**Q.** Which results are given for `Cn1ncc2cc(CNC(=O)[C@@H]3C[C@@H](Cc4ccc(C5CC5)nn4)CN3C(=O)[C@@H]3NCCC[C@@H]3C(=O)N3CCCC3)ccc21` [Example M05997, (2S,4S)-4-[(6-cyclopropylpyridazin-3-yl)methyl]-N-[(1-methylindazol-5-yl)methyl]-1-[(2R,3S)-3-(pyrrolidine-1-carbonyl)piperidine-2-carbonyl]pyrrolidine-2-carboxamide]?
**A.** Ki (FXIIa): 200 to 800 nM; FXa (human)/FXIIa alpha (human) (FXa): ∘∘∘; Thrombin (human)/FXIIa alpha (human) (thrombin): +++ (fold selectivity values greater than 100)

**Q.** For `Cc1ccc(C[C@@H]2C[C@@H](C(=O)NCc3ccc4c(cnn4C)c3)N(C(=O)[C@@H]3NCCC[C@@H]3C(=O)N(C)CCCN(C)C)C2)cc1` [Example M06063, (2R,3S)-N-(3-(dimethylamino)propyl)-N-methyl-2-((2S,4R)-2-(((1-methyl-1H-indazol-5-yl)methyl)carbamoyl)-4-(4-methylbenzyl)pyrrolidine-1-carbonyl)piperidine-3-carboxamide], which Ki (FXIIa) is on record?
**A.** < 200 nM

**Q.** And the “FXa (human)/FXIIa alpha (human)” value (FXa)?
**A.** ∘∘∘

**Q.** And the “Thrombin (human)/FXIIa alpha (human)” value (thrombin)?
**A.** +++ (fold selectivity values greater than 100)

From patent publication US20240294498A1, “FACTOR XIIA INHIBITORS” (Lunac Therapeutics Ltd, priority 2021, published 2024)
